Data: paper PMC10892423 (Pharmaceutics, 2024)

Tests used:
[1] = tested on: MBL-producing P. aeruginosa clinical isolates; experiment: Broth microdilution checkerboard synergy assay (MIC of ATM in combination); type: cell-based, Pseudomonas aeruginosa
NDM-1 = target: T1, NDM-1 (Klebsiella pneumoniae, UniProt C7C422); experiment: β-lactamase inhibition, imipenem hydrolysis; type: biochemical; conditions: imipenem substrate; read-out: β-Lactamases, IC50 NDM-1
T1 construct: purchased RayBiotech, Inc. 230-00554
From the text: (§1) Recombinant AmpC from Escherichia coli was produced according to a previously reported protocol. KPC-2 and NDM-1 […] were purchased from LifeSpan Biosciences, Inc. (Lynnwood, WA, USA) (LS-G26598) and RayBiotech, Inc. (Peachtree Corners, GA, USA) (230-00554), respectively. Genes encoding OXA-48 (residues 23–265) and VIM-2 (residues 27–266) were custom-synthesized (Bioneer Inc., Seoul, Republic of Korea) and expressed as previously described. The β-lactamase inhibitory activity of the title compounds was then determined according to the previously reported methods. Briefly, equal volumes (100 μL) of the title compounds (70–0.1 μM in PBS) and diluted enzyme stock were mixed (final concentration 2% of DMSO in 200 μL) in 96-well plates, which were then incubated at 37 °C for 20 min. The incubated mixture was added to each well containing substrates (nitrocefin for AmpC, KPC-2, OXA-48, and VIM-2; and imipenem for NDM-1) of final concentrations of 70 μM for nitrocefin and 100 μM for imipenem. Substrate hydrolysis was monitored at 486 nm (nitrocefin) or 300 nm (imipenem) for 15 min, using a Cytation 5 imaging multimode reader (BioTek Instruments Inc., Winooski, VT, USA). At the plateau level of hydrolysis, the corresponding rates of hydrolysis were compared to those obtained without inhibitors (100%) to determine the percentage of enzyme inhibition at each concentration of the title compounds. The IC50 values of the compounds were derived from sigmoidal dose–response curves, using GraphPad Prism 5 (GraphPad Software, Boston, MA, USA).

ESBLs = tested on: ESBLs; parameters: method as in PMID 32843653; conditions: cited from earlier work
[2] = tested on: efflux pump of PA-038blaNDM; experiment: Inhibition of efflux pumps: EtBr accumulation/efflux; type: cell-based, Pseudomonas aeruginosa; conditions: 8 mg/L of compound
Procedure: The accumulation of EtBr inside the NDM-producing (PA-038blaNDM) P. aeruginosa clinical isolates was monitored as previously described. Briefly, the P. aeruginosa strain was grown in 5 mL of LB medium until it reached the mid-log phase, and the bacteria were centrifuged at 3500 rpm for 15 min. The resulting pellet was washed twice with an equal volume of PBS. The concentration of the bacterial suspension was adjusted (OD600 = 0.3) and added to each well of a flat-bottomed 96-well black plate ([…]). After the addition of glucose (4 µL) to the cellular suspension at a final concentration of 0.4% (w/v), 4 µL of the title compound or positive control CCCP was added to the plate. Finally, EtBr (10 µL) was also added to each well at a final concentration of 1 µg/mL, and the plate was incubated at 37 °C for 60 min, during which time fluorescence emission from EtBr was recorded (λex 480 nm/λem 630 nm) with a 2-min interval, using a Cytation 5 imaging multi-mode reader (BioTek Instruments, Inc., Winooski, VT, USA).

KPC-2 = target: T2, KPC-2 (Klebsiella pneumoniae, UniProt Q9F663); experiment: β-lactamase inhibition, nitrocefin hydrolysis; type: biochemical; conditions: nitrocefin substrate; read-out: β-Lactamases, IC50 KPC-2
T2 construct: purchased LifeSpan Biosciences, Inc. LS-G26598
From the text: as §1

OXA-48 = target: T3, OXA-48 (Klebsiella pneumoniae, UniProt Q6XEC0); experiment: β-lactamase inhibition, nitrocefin hydrolysis; type: biochemical; conditions: nitrocefin substrate; read-out: β-Lactamases, IC50 OXA-48
T3 construct: Genes encoding OXA-48 (residues 23–265) and VIM-2 (residues 27–266) were custom-synthesized; made in house
From the text: as §1

VIM-2 = target: T4, VIM-2 (Escherichia coli, UniProt Q5U7L7); experiment: β-lactamase inhibition, nitrocefin hydrolysis; type: biochemical; conditions: nitrocefin substrate; read-out: β-Lactamases, IC50 VIM-2
T4 construct: Genes encoding OXA-48 (residues 23–265) and VIM-2 (residues 27–266) were custom-synthesized; made in house
From the text: as §1

AmpC = target: T5, AmpC (Escherichia coli, UniProt P00811); experiment: β-lactamase inhibition, nitrocefin hydrolysis; type: biochemical
T5 construct: made in house
From the text: as §1

[3] = tested on: human liver (HepG2) cell line; experiment: HepG2 cell viability; type: cell-based; conditions: up to 64 mg/L, 24 h exposure
Procedure: Concentration of 27 (mg/L)
Figure S1. Cell viability of human hepatoma HepG2 cells presented as percentage of
control after 24 h exposure to different concentrations of 27. The data represent the
average values of three experiments (± SD).

T1 sequence (C7C422 29-270, looked up, species assumed): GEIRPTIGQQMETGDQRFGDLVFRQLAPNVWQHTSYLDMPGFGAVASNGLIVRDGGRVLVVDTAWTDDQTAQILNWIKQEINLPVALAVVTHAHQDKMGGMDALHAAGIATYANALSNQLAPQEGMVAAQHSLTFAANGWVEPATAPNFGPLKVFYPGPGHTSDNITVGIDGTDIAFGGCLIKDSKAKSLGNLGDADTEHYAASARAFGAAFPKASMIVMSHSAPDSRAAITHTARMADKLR
T5 sequence (P00811 20-377): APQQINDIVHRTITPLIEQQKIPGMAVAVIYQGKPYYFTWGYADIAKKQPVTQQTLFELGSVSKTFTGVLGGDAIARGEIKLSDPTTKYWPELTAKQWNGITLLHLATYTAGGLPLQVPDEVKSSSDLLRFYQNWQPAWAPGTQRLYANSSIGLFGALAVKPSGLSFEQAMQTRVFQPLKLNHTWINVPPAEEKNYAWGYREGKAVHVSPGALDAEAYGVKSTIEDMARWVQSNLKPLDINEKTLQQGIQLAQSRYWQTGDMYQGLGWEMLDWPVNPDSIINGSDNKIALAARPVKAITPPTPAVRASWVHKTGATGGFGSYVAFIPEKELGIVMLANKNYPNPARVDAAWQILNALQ
T2 sequence (Q9F663 25-293, looked up): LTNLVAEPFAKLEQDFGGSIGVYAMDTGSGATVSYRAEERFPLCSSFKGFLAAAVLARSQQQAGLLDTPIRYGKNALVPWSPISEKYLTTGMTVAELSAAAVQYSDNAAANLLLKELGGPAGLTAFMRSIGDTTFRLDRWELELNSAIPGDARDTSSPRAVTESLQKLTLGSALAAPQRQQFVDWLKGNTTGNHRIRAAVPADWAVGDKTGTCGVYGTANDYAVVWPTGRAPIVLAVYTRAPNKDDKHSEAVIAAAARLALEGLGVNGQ
T3 sequence (Q6XEC0 23-265 limits assumed): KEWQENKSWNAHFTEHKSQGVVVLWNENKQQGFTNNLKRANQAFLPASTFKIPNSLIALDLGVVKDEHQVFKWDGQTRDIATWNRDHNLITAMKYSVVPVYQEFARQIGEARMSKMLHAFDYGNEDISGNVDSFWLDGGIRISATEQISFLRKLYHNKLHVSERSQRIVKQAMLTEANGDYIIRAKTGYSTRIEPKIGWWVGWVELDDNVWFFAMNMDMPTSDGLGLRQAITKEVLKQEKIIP

With `O=c1c(O)c(-c2ccc(F)c(F)c2)oc2cc(O)cc(O)c12` [Compound 1, 3′,4′-difluoroquercetin] as the compound, how does the “concentration at which ATM-potentiating activity was observed” value ([1]; four representative MBL-producing P. aeruginosa strains (Table 2)) read?
The value was 8 to 16 mg/L.

And the IC50 (NDM-1)?
Its IC50 is over 50 µM.

What about the “inhibition of ESBLs” value (ESBLs) of the same compound?
The value was “not to inhibit ESBLs”.

What about the “EtBr fluorescence (accumulation)” value [2] of the same compound?
The value was “as potent as CCCP”.

And the IC50 (KPC-2)?
Its IC50 is over 50 µM.

What about the IC50 (OXA-48) of the same compound?
Its IC50 is over 100 µM.

What about the IC50 (VIM-2) of the same compound?
The IC50 was over 100 µM.

And the IC50 (AmpC)?
Its IC50 is over 50 µM.

Which IC50 (NDM-1) does the source give for `CC(C)(C)CCOc1c(-c2ccc(F)c(F)c2)oc2cc(O)cc(O)c2c1=O` [Compound 23] here?
The IC50 was 11.4 µM.

And the “EtBr fluorescence (accumulation)” value [2]?
The value was “significant increase in EtBr accumulation”.

And the IC50 (KPC-2)?
The IC50 was 17.3 µM.

And the IC50 (OXA-48)?
The IC50 was 14.8 µM.

What about the IC50 (VIM-2) of the same compound?
Its IC50 is 11.9 µM.

What about the IC50 (AmpC) of the same compound?
Its IC50 is 18.9 µM.

Which “EtBr fluorescence (accumulation)” value [2] does the source give for `N#CC(C#N)=NNc1cccc(Cl)c1` [CCCP, carbonyl cyanide 3-chlorophenylhydrazone] here?
Its value is “became stronger”.

For `O=c1c(OCCC2CCCC2)c(-c2ccc(F)c(F)c2)oc2cc(O)cc(O)c12` [Compound 26], which IC50 (NDM-1) is on record?
Its IC50 is 15.9 µM.

What about the “EtBr fluorescence (accumulation)” value [2] of the same compound?
The value was “significant increase in EtBr accumulation”.

What about the IC50 (KPC-2) of the same compound?
The IC50 was 11.5 µM.

And the IC50 (OXA-48)?
Its IC50 is 8 µM.

What about the IC50 (VIM-2) of the same compound?
The IC50 was 9 µM.

And the IC50 (AmpC)?
Its IC50 is 21 µM.

For `O=c1c(OCCC2CCCCC2)c(-c2ccc(F)c(F)c2)oc2cc(O)cc(O)c12` [Compound 27], which cytotoxic effects [3] is on record?
The cytotoxic effects was “no cytotoxic effects”.

What about the “strains with more than a four-fold MIC reduction (synergistic effect) of ATM” value ([1]; 21 MBL-producing P. aeruginosa clinical strains, combination with ATM) of the same compound?
The value was 19 out of 21.

And the MIC ([1]; Pseudomonas aeruginosa, MBL-producing P. aeruginosa clinical isolates, no activity up to this concentration, read-out: antimicrobial activity (MIC) of the compound alone)?
The MIC was over 512 µg/mL.

And the IC50 (NDM-1)?
The IC50 was 10.1 µM.

And the “EtBr fluorescence (accumulation)” value [2]?
The value was “significant increase in EtBr accumulation”.

And the IC50 (KPC-2)?
Its IC50 is 11.3 µM.

And the IC50 (OXA-48)?
The IC50 was 6.3 µM.

And the IC50 (VIM-2)?
Its IC50 is 4.4 µM.

What about the IC50 (AmpC) of the same compound?
The IC50 was 15.3 µM.
